Values joined by “and” are separate entries in the source; they are usually repeats but may differ in a detail not shown here. Equal entries are not always repeated. Where two headings read alike, the source gives them in different places.
Legend:
rust [1] = assay type: in vivo, wheat
powdery mildew [2] = assay type: in vivo, wheat
wheat scab [3] = assay type: in vivo
wheat scab [4] = assay type: in vivo; remark: listed apart in the source
wheat scab [5] = assay type: in vivo; remark: listed apart in the source
rust [6] = assay type: in vivo, wheat; remark: listed apart in the source
Fusarium asiaticum = experiment: microbe, parasite or virus in culture; assay type: cell-based; conditions: for Average Fungal Colony Diameter F.a / Growth Inhibition Rate F.a: sensitive strains
powdery mildew [7] = assay type: in vivo, wheat; remark: listed apart in the source
leaf blight [8] = assay type: in vivo, wheat
Fusarium graminearum = experiment: microbe, parasite or virus in culture; assay type: cell-based; conditions: for Average Fungal Colony Diameter F.g / Growth Inhibition Rate F.g: sensitive strains
rust [9] = assay type: in vivo, wheat; remark: listed apart in the source
rust [10] = assay type: in vivo, wheat; conditions: Preparation 100 (mL/mu); Jinggangmycin 0, Tebuconazole 20 g ai. agent/mu
wheat scab [11] = assay type: in vivo; conditions: Preparation 100 (mL/mu); Jinggangmycin 0, Tebuconazole 20 g ai. agent/mu
powdery mildew [12] = assay type: in vivo, wheat; conditions: dosage g ai./mu: c1 Jinggangmycin, c2 Tebuconazole of the line
[13] = tested on: Fusarium graminearum and Fusarium asiaticum; experiment: organism not typed; assay type: cell-based
rust [14] = assay type: in vivo, wheat; conditions: Preparation 100 g/mu; Jinggangmycin 0, Tebuconazole 20 g ai. agent/mu
powdery mildew [15] = assay type: in vivo, wheat; remark: listed apart in the source
wheat scab [16] = assay type: in vivo; conditions: Preparation 100 g/mu; Jinggangmycin 0, Tebuconazole 20 g ai. agent/mu
leaf blight [17] = assay type: in vivo, wheat; remark: listed apart in the source
powdery mildew [18] = assay type: in vivo, wheat; conditions: Preparation 100 (mL/mu); Jinggangmycin 0, Tebuconazole 20 g ai. agent/mu
leaf blight [19] = assay type: in vivo, wheat; remark: listed apart in the source
[20] = tested on: carbendazim-resistant Fusarium asiaticum; experiment: microbe, parasite or virus in culture; assay type: cell-based; conditions: for DON Biosynthesis Inhibition Rate / Toxin Production Capability: Jinggangmycin + Tebuconazole 0 + 0.1 μg/ml
wheat scab [21] = assay type: in vivo; conditions: Preparation 50 g/mu; Tebuconazole 10 g ai. agent/mu
[22] = assay type: in vivo, wheat
leaf blight [23] = assay type: in vivo, wheat; conditions: Preparation 100 (mL/mu); Jinggangmycin 0, Tebuconazole 20 g ai. agent/mu
leaf blight [24] = assay type: in vivo, wheat; conditions: Preparation 100 g/mu; Jinggangmycin 0, Tebuconazole 20 g ai. agent/mu
[25] = assay type: in vivo, wheat; remark: listed apart in the source
powdery mildew [26] = assay type: in vivo, wheat; conditions: Preparation 100 g/mu; Jinggangmycin 0, Tebuconazole 20 g ai. agent/mu
powdery mildew [27] = assay type: in vivo, wheat; remark: listed apart in the source
[28] = Tebuconazole 2.0 g ai. agent/mu
[29] = Tebuconazole 4.0 g ai. agent/mu
[30] = Tebuconazole 6.0 g ai. agent/mu
[31] = Tebuconazole 7.5 g ai. agent/mu
[32] = Tebuconazole 8.8 g ai. agent/mu
[33] = Tebuconazole 9.5 g ai. agent/mu
[34] = Tebuconazole 12.0 g ai. agent/mu
[35] = Tebuconazole 15.0 g ai. agent/mu
[36] = Tebuconazole 17.5 g ai. agent/mu
[37] = Tebuconazole 19.0 g ai. agent/mu
[38] = Preparation 22.5 g/mu, Tebuconazole 4.5 g ai. agent/mu
[39] = Preparation 30 g/mu, Tebuconazole 6 g ai. agent/mu
[40] = Preparation 15 g/mu, Tebuconazole 3 g ai. agent/mu
[41] = Preparation 37.5 g/mu, Tebuconazole 7.5 g ai. agent/mu
[42] = Preparation 50 g/mu, Tebuconazole 10 g ai. agent/mu

Tebuconazole
Disease Index Prevention Effect % Rust (rust [1]; [28]): 18.0% | Disease Index Prevention Effect % Rust (rust [1]; [29]): 32.1% | Disease Index Prevention Effect % Rust (rust [1]; [30]): 45.2% | Disease Index Prevention Effect % Rust (rust [1]; [31]): 71.5% | Disease Index Prevention Effect % Rust (rust [1]; [32]): 78.4% | Disease Index Prevention Effect % Rust (rust [1]; [33]): 80.5% | Disease Index Prevention Effect % Rust (rust [1]; [34]): 81.8% | Disease Index Prevention Effect % Rust (rust [1]; [35]): 85.6% | Disease Index Prevention Effect % Rust (rust [1]; [36]): 89.4% | Disease Index Prevention Effect % Rust (rust [1]; [37]): 92.8% | Disease Index Prevention Effect % Powdery Mildew (powdery mildew [2]; Tebuconazole 6 g ai. agent/mu): 62.4% | Disease Index Prevention Effect % Powdery Mildew (powdery mildew [2]; Tebuconazole 9 g ai. agent/mu): 70.8% | Disease Index Prevention Effect % Powdery Mildew (powdery mildew [2]; Tebuconazole 15 g ai. agent/mu): 76.4% | Disease Index Prevention Effect % Powdery Mildew (powdery mildew [2]; Tebuconazole 21 g ai. agent/mu): 81.6% | Disease Index Prevention Effect % Head Blight (wheat scab [3]; [38]): 48.2% | Disease Index Prevention Effect % Head Blight (wheat scab [3]; [39]): 53.9% | Disease Index Prevention Effect % Head Blight (wheat scab [4]; [28]): 12.9% | Disease Index Prevention Effect % Head Blight (wheat scab [4]; [29]): 25.6% | Disease Index Prevention Effect % Head Blight (wheat scab [4]; [30]): 42.5% | Disease Index Prevention Effect % Head Blight (wheat scab [4]; [31]): 56.7% | Disease Index Prevention Effect % Head Blight (wheat scab [4]; [32]): 61.5% | Disease Index Prevention Effect % Head Blight (wheat scab [4]; [33]): 65.4% | Disease Index Prevention Effect % Head Blight (wheat scab [4]; [34]): 68.4% | Disease Index Prevention Effect % Head Blight (wheat scab [4]; [35]): 71.8% | Disease Index Prevention Effect % Head Blight (wheat scab [4]; [36]): 73.9% | Disease Index Prevention Effect % Head Blight (wheat scab [4]; [37]): 74.2% | Disease Index Prevention Effect % Head Blight (wheat scab [5]; Tebuconazole 6 g ai. agent/mu): 53.4% | Disease Index Prevention Effect % Head Blight (wheat scab [5]; Tebuconazole 9 g ai. agent/mu): 65.8% | Disease Index Prevention Effect % Head Blight (wheat scab [5]; Tebuconazole 15 g ai. agent/mu): 70.4% | Disease Index Prevention Effect % Head Blight (wheat scab [5]; Tebuconazole 21 g ai. agent/mu): 76.8% | Disease Index Prevention Effect % Rust (rust [6]; [40]): 64.5% | Disease Index Prevention Effect % Rust (rust [6]; [41]): 75.6% | Disease Index Prevention Effect % Rust (rust [6]; [42]): 82.4% | Median Effective Concentration (EC50) for Growth Inhibition (Fusarium asiaticum; F.a carbendazim-resistant strains): 0.116 µg/mL | Median Effective Concentration (EC50) for Growth Inhibition (Fusarium asiaticum; F.a phenamacril-resistant strains): 0.111 µg/mL | Median Effective Concentration (EC50) for Growth Inhibition (Fusarium asiaticum; F.a sensitive strains): 0.102 µg/mL | Average Fungal Colony Diameter F.a (Fusarium asiaticum; Tebuconazole 0.02 μg/mL): 43 mm | Growth Inhibition Rate F.a (Fusarium asiaticum; Tebuconazole 0.02 μg/mL): 32.9% | Average Fungal Colony Diameter F.a (Fusarium asiaticum; Tebuconazole 0.078 μg/mL): 34 mm | Growth Inhibition Rate F.a (Fusarium asiaticum; Tebuconazole 0.078 μg/mL): 48.8% | Average Fungal Colony Diameter F.a (Fusarium asiaticum; Tebuconazole 0.3125 μg/mL): 22 mm | Growth Inhibition Rate F.a (Fusarium asiaticum; Tebuconazole 0.3125 μg/mL): 70.8% | Average Fungal Colony Diameter F.a (Fusarium asiaticum; Tebuconazole 5.0 μg/mL): 9 mm | Growth Inhibition Rate F.a (Fusarium asiaticum; Tebuconazole 5.0 μg/mL): 88.0% | Disease Index Prevention Effect % Powdery Mildew (powdery mildew [7]; [28]): 15.4% | Disease Index Prevention Effect % Powdery Mildew (powdery mildew [7]; [29]): 28.5% | Disease Index Prevention Effect % Powdery Mildew (powdery mildew [7]; [30]): 36.4% | Disease Index Prevention Effect % Powdery Mildew (powdery mildew [7]; [31]): 58.2% | Disease Index Prevention Effect % Powdery Mildew (powdery mildew [7]; [32]): 60.5% | Disease Index Prevention Effect % Powdery Mildew (powdery mildew [7]; [33]): 65.2% | Disease Index Prevention Effect % Powdery Mildew (powdery mildew [7]; [34]): 76.5% | Disease Index Prevention Effect % Powdery Mildew (powdery mildew [7]; [35]): 74.5% | Disease Index Prevention Effect % Powdery Mildew (powdery mildew [7]; [36]): 76.4% | Disease Index Prevention Effect % Powdery Mildew (powdery mildew [7]; [37]): 81.2% | Disease Index Prevention Effect % Leaf Blight (leaf blight [8]; [28]): 14.5% | Disease Index Prevention Effect % Leaf Blight (leaf blight [8]; [29]): 19.2% | Disease Index Prevention Effect % Leaf Blight (leaf blight [8]; [30]): 29.5% | Disease Index Prevention Effect % Leaf Blight (leaf blight [8]; [31]): 71.2% | Disease Index Prevention Effect % Leaf Blight (leaf blight [8]; [32]): 73.1% | Disease Index Prevention Effect % Leaf Blight (leaf blight [8]; [33]): 74.2% | Disease Index Prevention Effect % Leaf Blight (leaf blight [8]; [34]): 76.5% | Disease Index Prevention Effect % Leaf Blight (leaf blight [8]; [35]): 78.9% | Disease Index Prevention Effect % Leaf Blight (leaf blight [8]; [36]): 80.3% | Disease Index Prevention Effect % Leaf Blight (leaf blight [8]; [37]): 81.2% | Median Effective Concentration (EC50) for Growth Inhibition (Fusarium graminearum; F.g sensitive strains): 0.096 µg/mL | Average Fungal Colony Diameter F.g (Fusarium graminearum; Tebuconazole 0.02 μg/mL): 42 mm | Growth Inhibition Rate F.g (Fusarium graminearum; Tebuconazole 0.02 μg/mL): 34.2% | Average Fungal Colony Diameter F.g (Fusarium graminearum; Tebuconazole 0.078 μg/mL): 32 mm | Growth Inhibition Rate F.g (Fusarium graminearum; Tebuconazole 0.078 μg/mL): 47.5% | Average Fungal Colony Diameter F.g (Fusarium graminearum; Tebuconazole 0.3125 μg/mL): 21 mm | Growth Inhibition Rate F.g (Fusarium graminearum; Tebuconazole 0.3125 μg/mL): 72.1% | Average Fungal Colony Diameter F.g (Fusarium graminearum; Tebuconazole 5.0 μg/mL): 9 mm | Growth Inhibition Rate F.g (Fusarium graminearum; Tebuconazole 5.0 μg/mL): 88.0% | Disease Index Prevention Effect % Rust (rust [9]; Tebuconazole 6 g ai. agent/mu): 61.5% | Disease Index Prevention Effect % Rust (rust [9]; Tebuconazole 9 g ai. agent/mu): 72.6% | Disease Index Prevention Effect % Rust (rust [9]; Tebuconazole 15 g ai. agent/mu): 78.3% | Disease Index Prevention Effect % Rust (rust [9]; Tebuconazole 21 g ai. agent/mu): 86.1% | Disease Index Prevention Effect % Rust (rust [10]): 82.4% | Disease Index Prevention Effect % Head Blight (wheat scab [11]): 84.6% | Disease Index Prevention Effect % Powdery Mildew (powdery mildew [12]): 72.61% and 76.19% and 66.32% and 39.46% | activity of tebuconazole relative to carbendazim (by EC50) ([13]; sensitive strains): about 4.5 times | activity of tebuconazole relative to phenamacril (by EC50) ([13]; sensitive strains): about 1.5 times | inhibition rate on the hyphal growth of the head blight fungi ([13]; tebuconazole 0.1 μg/ml alone): about 50% | Disease Index Prevention Effect % Rust (rust [14]): 98.5% | Disease Index Prevention Effect % Powdery Mildew (powdery mildew [15]; [40]): 48.7% | Disease Index Prevention Effect % Powdery Mildew (powdery mildew [15]; [38]): 60.4% | Disease Index Prevention Effect % Powdery Mildew (powdery mildew [15]; [39]): 64.9% | Disease Index Prevention Effect % Powdery Mildew (powdery mildew [15]; [41]): 72.4% | Disease Index Prevention Effect % Head Blight (wheat scab [16]): 80.1% | Disease Index Prevention Effect % Leaf Blight (leaf blight [17]; Tebuconazole 6 g ai. agent/mu): 64.5% | Disease Index Prevention Effect % Leaf Blight (leaf blight [17]; Tebuconazole 9 g ai. agent/mu): 70.1% | Disease Index Prevention Effect % Leaf Blight (leaf blight [17]; Tebuconazole 15 g ai. agent/mu): 72.4% | Disease Index Prevention Effect % Leaf Blight (leaf blight [17]; Tebuconazole 21 g ai. agent/mu): 73.5% | Disease Index Prevention Effect % Powdery Mildew (powdery mildew [18]): 88.2% | Disease Index Prevention Effect % Leaf Blight (leaf blight [19]; [40]): 65.4% | Disease Index Prevention Effect % Leaf Blight (leaf blight [19]; [41]): 68.5% | Disease Index Prevention Effect % Leaf Blight (leaf blight [19]; [42]): 64.5% | DON Biosynthesis Inhibition Rate ([20]; 7 days): 4.2% | Toxin Production Capability ([20]; 7 days): 87.42 μgDON/g by dry weight of hyphae | DON Biosynthesis Inhibition Rate ([20]; 14 days): 0.6% | Toxin Production Capability ([20]; 14 days): 52.50 μgDON/g by dry weight of hyphae | inhibitory effect on toxin biosynthesis capability versus blank control ([20]; tebuconazole 0.1 μg/ml, seven and fourteen days): does not have significant inhibitory effects | Disease Index Prevention Effect % Head Blight (wheat scab [21]): 72.4% | Thousand Kernel Weight ([22]; Tebuconazole 6 g ai. agent/mu): 40.5 g | Thousand Kernel Weight ([22]; Tebuconazole 9 g ai. agent/mu): 41.5 g | Thousand Kernel Weight ([22]; Tebuconazole 15 g ai. agent/mu): 42 g | Thousand Kernel Weight ([22]; Tebuconazole 21 g ai. agent/mu): 42.7 g | Disease Index Prevention Effect % Leaf Blight (leaf blight [23]): 83.6% | Disease Index Prevention Effect % Leaf Blight (leaf blight [24]): 84.2% | Thousand Kernel Weight [25, 40]: 40 g | Thousand Kernel Weight [25, 41]: 41.5 g | Thousand Kernel Weight [25, 42]: 40.8 g | Disease Index Prevention Effect % Powdery Mildew (powdery mildew [26]): 96.2% | Disease Index Prevention Effect % Powdery Mildew (powdery mildew [27]; [40]): 68.1% | Disease Index Prevention Effect % Powdery Mildew (powdery mildew [27]; [41]): 73.5% | Disease Index Prevention Effect % Powdery Mildew (powdery mildew [27]; [42]): 82.4%

Reference: patent US10588316B2 (priority 2015, dated 2020)
